In patent publication US5506239A, “Carbostyril derivative and platelets aggregation inhibitory agent” (Otsuka Pharmaceutical Co., Ltd., priority 1991, dated 1996):

Tested on: platelets
Test: Platelets aggregation inhibitory activity (method of Born et al.), ADP-induced, human PRP (Pharmacological Test I)
Type: cell-based, man
Conditions: 7.5 μM ADP, 37° C., read-out: IC50 ADP (50% platelets aggregation inhibition)
Protocol: (§1) The platelets aggregation inhibitory activity of each test compound was measured by the method of Born et al. [J. Physiol., London, 162, 67 (1962)], using Platelets Aggregation Tracer manufactured by Nikoh Bioscience Co., Ltd.
(§2) 9 volumes of a blood collected from person was mixed with 1 volume of a 3.8% aqueous sodium citrate solution. Part of the mixture was subjected to centrifugation at 1,100 rpm for 10 minutes to obtain a platelet rich plasma (PRP). The remainder of the mixture was also subjected to centrifugation at 3,000 rpm for 10 minutes to obtain a platelet poor plasma (PPP).
(§3) The number of platelets in the PRP was measured using Coulter Counter manufactured by Coulter Electronics Inc. Then, the PRP was diluted with the PPP so that the number of platelets in the dilution became 300,000, whereby a PRP solution was prepared.
(§4) 200 μl of this PRP solution and 2 ml of a solution containing a test compound at a given concentration were placed in an aggregation measurement cell and heated at 37° C. for 1 minute. Thereto was added 20 μl of adenosine diphosphate (ADP manufactured by Sigma Co.) or a collagen suspension (Collagen Reagent manufactured by Horm, Hormon-Chemie, Gmbh) to induce aggregation of platelets. The resulting mixture in the cell was measured for change of transmittance, after which a platelets aggregation curve was prepared. Incidentaly, the concentration of ADP or collagen was selected so that the final Concentration became 7.5 μM or 20 μg/ml.
(§5) Using the platelets aggregation curve, there was calculated a maximum aggregation rate (MAR) of platelets using the followoing formula: […]
(§6) wherein a represents a transmittance of the PRP obtained in the same manner; c represents a transmittance of the PPP obtained in the same manner; and b represents a transmittance at the maximum change, of the PRP solution containng the test compound and the aggregation inducer.
(§7) A MAR was also calculated as above, for the control containing no test compound.
(§8) Using the above two MARs, there were calculated platelets aggregation inhibitions (%) of each test compound at various concentrations using the following formula.
(§9) Inhibition=[1-(MAR of PRP solution containing test compound)/(MAR of PRP
(§10) solution containing no test compound)]×100
(§11) Using the above obtained platelets aggregation inhibitions (%) of each test compound at various concentrations, there was calculated a concentration (IC50) of each test compound for 50% platelets aggregation inhibition.

| Structure (SMILES) | IC50 |
| --- | --- |
| CN(C(=S)CCCOc1ccc2[nH]c(=O)ccc2c1)C1CCCCC1 [Example 135] | 22 µM |

Same assay, conditions: Homo sapiens, Platelet, 7.5 μM ADP, 37° C., read-out: IC50 ADP (50% platelets aggregation inhibition)

| Structure (SMILES) | IC50 |
| --- | --- |
| O=c1ccc2cc(OCCCCS(=O)(=O)N(CCN3CCC(O)CC3)Cc3cccs3)ccc2[nH]1 [Example 90] | 5.3 µM |
| O=c1ccc2cc(OCCCCN(CCN3CCC(O)CC3)CC3CCCCO3)ccc2[nH]1 (centres unmarked) [Example 24] | 14 µM |
| O=c1ccc2cc(OCCCS(=O)(=O)N(CCN3CCN(CCO)CC3)CC3CCCCCCC3)ccc2[nH]1 [Example 99] | 2.9 µM |
| O=c1ccc2cc(OCCCCCN(CCN3CCC(O)CC3)Cc3ccc(Cl)c(Cl)c3)ccc2[nH]1 [Example 36] | 11 µM |
| O=c1ccc2cc(OCCCCCN(CCN3CCC(O)CC3)Cc3ccccc3)ccc2[nH]1 [Example 29] | 12 µM |
| Cc1ccc(CN(CCN2CCC(O)CC2)S(=O)(=O)CCCCOc2ccc3[nH]c(=O)ccc3c2)cc1 [Example 94] | 1.4 µM |
| O=c1ccc2cc(OCCCCS(=O)(=O)N(CCN3CCC(O)CC3)Cc3ccc(Cl)c(Cl)c3)ccc2[nH]1 [Example 95] | 10 µM |
| O=c1ccc2cc(OCCCCN(CCNCCO)CC3CCCCCCC3)ccc2[nH]1 [Example 60] | 15 µM |
| O=C(CN(CC1CCCCCCC1)S(=O)(=O)CCCOc1ccc2[nH]c(=O)ccc2c1)N1CCC(O)CC1 [Example 81] | 6.1 µM |
| O=c1ccc2cc(OCCCCN(CCN3CCC(O)CC3)C3CCCCC3)ccc2[nH]1 [Example 26] | 15 µM |
| O=c1ccc2cc(OCCCCN(Cc3ccccc3)S(=O)(=O)CCCN3CCC[C@H]3CO)ccc2[nH]1 [Example 126] | 10 µM |
| O=c1ccc2cc(OCCCS(=O)(=O)N(CCN3CCC[C@H]3CO)CC3CCCCCCC3)ccc2[nH]1 [Example 103] | 2.6 µM |
| Cc1ccc(CN(CCCCCOc2ccc3[nH]c(=O)ccc3c2)CCN2CCC(O)CC2)cc1 [Example 32] | 4.8 µM |
| O=c1ccc2cc(OCCCS(=O)(=O)N(CCN3CCC(O)CC3)CC3CCCCC3)ccc2[nH]1 [Example 82] | 4.5 µM |
| CN(C1CCCCC1)S(=O)(=O)CCCCOc1ccc2[nH]c(=O)ccc2c1 [Example 77] | 2.1 µM |
| O=C1CC[C@@H](CO)N1CCN(CCCCCOc1ccc2[nH]c(=O)ccc2c1)Cc1ccccc1 [Example 55] | 3.7 µM |
| CCN1C[C@H](O)C[C@H]1CN(CC1CCCCC1)S(=O)(=O)CCCCOc1ccc2[nH]c(=O)ccc2c1 [Example 106] | 1.4 µM |
| O=C(C1CCCCCCC1)N(CCCCOc1ccc2[nH]c(=O)ccc2c1)CCN1CCC(O)CC1 [Example 41] | 8.7 µM |
| O=c1ccc2cc(OCCCS(=O)(=O)N(CCN3CCC(O)CC3)CC3CCCCCCC3)ccc2[nH]1 [Example 78] | 1.4 µM |
| CCN1C[C@H](O)C[C@H]1CN(CCCCOc1ccc2[nH]c(=O)ccc2c1)CC1CCCCCCC1 [Example 71] | 18 µM |
| O=c1ccc2cc(OCCCS(=O)(=O)N(CCN3CCC(O)CC3)CC3CCCCO3)ccc2[nH]1 (centres unmarked) [Example 84] | 9.5 µM |
| CCN(CC)CCN(CC1CCCCCC1)S(=O)(=O)CCCOc1ccc2[nH]c(=O)ccc2c1 [Example 110] | 4.7 µM |
| O=c1ccc2cc(OCCCCCS(=O)(=O)N(CCN3CCC(O)CC3)CC3CCCCCCC3)ccc2[nH]1 [Example 80] | 13 µM |
| CCN(CC)CC(CO)N(CC1CCCCCCC1)S(=O)(=O)CCCCOc1ccc2[nH]c(=O)ccc2c1 (centres unmarked) [Example 107] | 3.4 µM |
| O=c1ccc2cc(OCCCCCN(CCn3ccnc3)Cc3ccccc3)ccc2[nH]1 [Example 69] | 15 µM |
| O=c1ccc2cc(OCCCS(=O)(=O)N(CCN3C[C@H](O)[C@@H](O)C3)CC3CCCCCCC3)ccc2[nH]1 [Example 102] | 9.5 µM |

Tested on: platelets
Test: Platelets aggregation inhibitory activity (method of Born et al.), collagen-induced, human PRP (Pharmacological Test I)
Type: cell-based, man
Conditions: Homo sapiens, Platelet, 20 μg/ml collagen, 37° C., read-out: IC50 Collagen (50% platelets aggregation inhibition)
Protocol: as §1, §2, §3, §4, §5, §6, §7, §8, §9, §10, §11

| Structure (SMILES) | IC50 |
| --- | --- |
| O=c1ccc2cc(OCCCCS(=O)(=O)N(CCN3CCC(O)CC3)Cc3cccs3)ccc2[nH]1 [Example 90] | 5.4 µM |
| O=c1ccc2cc(OCCCCN(CCN3CCC(O)CC3)CC3CCCCO3)ccc2[nH]1 (centres unmarked) [Example 24] | 14 µM |
| O=c1ccc2cc(OCCCS(=O)(=O)N(CCN3CCN(CCO)CC3)CC3CCCCCCC3)ccc2[nH]1 [Example 99] | 3.5 µM |
| O=c1ccc2cc(OCCCCCN(CCN3CCC(O)CC3)Cc3ccc(Cl)c(Cl)c3)ccc2[nH]1 [Example 36] | 20 µM |
| O=c1ccc2cc(OCCCCCN(CCN3CCC(O)CC3)Cc3ccccc3)ccc2[nH]1 [Example 29] | 6.3 µM |
| Cc1ccc(CN(CCN2CCC(O)CC2)S(=O)(=O)CCCCOc2ccc3[nH]c(=O)ccc3c2)cc1 [Example 94] | 2.3 µM |
| O=c1ccc2cc(OCCCCS(=O)(=O)N(CCN3CCC(O)CC3)Cc3ccc(Cl)c(Cl)c3)ccc2[nH]1 [Example 95] | 7.1 µM |
| O=c1ccc2cc(OCCCCN(CCNCCO)CC3CCCCCCC3)ccc2[nH]1 [Example 60] | 5.3 µM |
| O=C(CN(CC1CCCCCCC1)S(=O)(=O)CCCOc1ccc2[nH]c(=O)ccc2c1)N1CCC(O)CC1 [Example 81] | 11 µM |
| O=c1ccc2cc(OCCCCN(CCN3CCC(O)CC3)C3CCCCC3)ccc2[nH]1 [Example 26] | 14 µM |
| O=c1ccc2cc(OCCCCN(Cc3ccccc3)S(=O)(=O)CCCN3CCC[C@H]3CO)ccc2[nH]1 [Example 126] | 15 µM |
| O=c1ccc2cc(OCCCS(=O)(=O)N(CCN3CCC[C@H]3CO)CC3CCCCCCC3)ccc2[nH]1 [Example 103] | 3.2 µM |
| Cc1ccc(CN(CCCCCOc2ccc3[nH]c(=O)ccc3c2)CCN2CCC(O)CC2)cc1 [Example 32] | 6.1 µM |
| O=c1ccc2cc(OCCCS(=O)(=O)N(CCN3CCC(O)CC3)CC3CCCCC3)ccc2[nH]1 [Example 82] | 3.8 µM |
| CN(C1CCCCC1)S(=O)(=O)CCCCOc1ccc2[nH]c(=O)ccc2c1 [Example 77] | 4.9 µM |
| O=C1CC[C@@H](CO)N1CCN(CCCCCOc1ccc2[nH]c(=O)ccc2c1)Cc1ccccc1 [Example 55] | 2.6 µM |
| CCN1C[C@H](O)C[C@H]1CN(CC1CCCCC1)S(=O)(=O)CCCCOc1ccc2[nH]c(=O)ccc2c1 [Example 106] | 0.9 µM |
| O=C(C1CCCCCCC1)N(CCCCOc1ccc2[nH]c(=O)ccc2c1)CCN1CCC(O)CC1 [Example 41] | 11 µM |
| O=c1ccc2cc(OCCCS(=O)(=O)N(CCN3CCC(O)CC3)CC3CCCCCCC3)ccc2[nH]1 [Example 78] | 0.38 µM |
| CCN1C[C@H](O)C[C@H]1CN(CCCCOc1ccc2[nH]c(=O)ccc2c1)CC1CCCCCCC1 [Example 71] | 7.4 µM |
| O=c1ccc2cc(OCCCS(=O)(=O)N(CCN3CCC(O)CC3)CC3CCCCO3)ccc2[nH]1 (centres unmarked) [Example 84] | 9.1 µM |
| CCN(CC)CCN(CC1CCCCCC1)S(=O)(=O)CCCOc1ccc2[nH]c(=O)ccc2c1 [Example 110] | 8.3 µM |
| O=c1ccc2cc(OCCCCCS(=O)(=O)N(CCN3CCC(O)CC3)CC3CCCCCCC3)ccc2[nH]1 [Example 80] | 15 µM |
| CCN(CC)CC(CO)N(CC1CCCCCCC1)S(=O)(=O)CCCCOc1ccc2[nH]c(=O)ccc2c1 (centres unmarked) [Example 107] | 3.2 µM |
| O=c1ccc2cc(OCCCCCN(CCn3ccnc3)Cc3ccccc3)ccc2[nH]1 [Example 69] | 9.5 µM |
| O=c1ccc2cc(OCCCS(=O)(=O)N(CCN3C[C@H](O)[C@@H](O)C3)CC3CCCCCCC3)ccc2[nH]1 [Example 102] | 15 µM |
